Results from EP4786486A1, “PEPTIDES FOR TREATING CARDIAC DISEASES” (Universidad Complutense De Madrid, priority 2023, dated 2025).
Read-outs that look alike come from different tables or passages of the source. Where no end group is shown, it is not given here.

Tests used:
[1] = tested on: human iPSC-derived cardiomyocytes; test: INa density in hiPSC-CM infected with AAV9 encoding the peptide, patch-clamp; format: cell-based; conditions: hiPSC-CM infected 48 hours with AAV9 encoding DECA-11; vs. Ad-td-Tomato infected cardiomyocytes; P<0.05
[2] = tested on: human iPSC-derived cardiomyocytes; test: IK1 density in hiPSC-CM infected with AAV9 encoding the peptide, patch-clamp; format: cell-based; conditions: hiPSC-CM infected 48 hours with AAV9 encoding DECA-11; vs. Ad-td-Tomato infected cardiomyocytes; P<0.05
[3] = tested on: dissociated cardiomyocytes from Sham and TAC mice; test: Capacitance (cell size) of dissociated cardiomyocytes, murine TAC model of HFrEF; format: in vivo; conditions: TAC animals treated with DECA-11 (AAV9) vs. untreated TAC animals
Excerpt: (§1) A murine model of CI with reduced ejection fraction (HFrEF) was used to analyse the effect of SEQ ID NO: 3 on the decrease in INa and IK1 caused by electrical remodelling associated with Cl. The mice are subjected to transverse aortic constriction (TAC) with ligation, and pressure overload leads to the occurrence of cardiac hypertrophy and Cl. The mice were produced at the Medical Research Centre of the University of Navarra (CIMA), under the direction of Dr Aránzazu González Miqueo.
(§2) Eight-week-old mice were administered 3.5×10^10 particles of adeno-associated virus type 9 that encoded either the fluorescent reporter td-Tomato (Aav-dt-T) alone, or the reporter and the peptide DECA-11. At 12 weeks of age, an echocardiographic check-up (baseline) was performed and at week 13 they underwent surgery in which the aorta was ligated (TAC animals) or not (Sham animals).
That same week they were sent to the UCM animal facility. Next, the mice were heparinised and anaesthetised and then sacrificed by cervical dislocation, at a rate of one per day, and a thoracotomy was performed to remove the heart which was mounted through the aorta into a cannula connected to a Langendorff apparatus for enzymatic dissociation of the cardiac myocytes. […]

[4] = tested on: dissociated cardiomyocytes from Sham and TAC mice; test: IK1 density in dissociated cardiomyocytes, murine TAC model of HFrEF; format: in vivo; conditions: for IK1: administration of DECA-11 (AAV9)
Excerpt: as §1, §2
That same week they were sent to the UCM animal facility. Next, the mice were heparinised and anaesthetised and then sacrificed by cervical dislocation, at a rate of one per day, and a thoracotomy was performed to remove the heart which was mounted through the aorta into a cannula connected to a Langendorff apparatus for enzymatic dissociation of the cardiac myocytes. After removal of the heart, said heart was cannulated through the aorta and placed in a Langendorff apparatus. First, the hearts were perfused with modified Tyrode's solution (composition in mM: 136 NaCI, 4 KCI, 2 MgCl2, 1.8 CaCl2, 10 HEPES, 10 glucose, 3 pyruvic acid and 0.1 thiamine, pH=7.4 with NaOH) bubbled with oxygen and at 37°C for 3-5 minutes. Subsequently, they were perfused for another 8 minutes with the same solution without CaCl2. After 1-2 minutes, the heart stops beating. Next, they were perfused with Tyrode's solution without CaCl2 supplemented with 120 u/ml collagenase type II from Worthington and 0.5 u/ml protease XIV from Sigma. […]
As indicated above, IK1 was also recorded in mouse cardiomyocytes from all four groups. […] In fact, the density of IK1 in TAC animals pretreated with DECA-11 is not different from that recorded in Sham animals.

[5] = tested on: human iPSC-derived cardiomyocytes; conditions: hiPSC-CM; sustained current sensitive to TTX (10 µM), as percentage of the current peak; 500 ms pulses from -120 to -45 mV
human Kir2.1 channels = test: Density of IKir2.1 by whole-cell patch-clamp in CHO cells co-transfected with the cDNA encoding the peptide; format: cell-based; conditions: CHO cells expressing Kir2.1 plus cDNA of the peptide (SEQ ID NO: 5), vs cells transfected only with Kir2.1 channels
Experimental: To do this, CHO cells were transfected with the cDNA that encodes the human cardiac channels (Kir2.1) that generate IK1 (Origene, USA) (SEQ ID NO: 22), co-transfecting cells, or not, with the cDNA described in SEQ ID NO: 5. […] The sampling frequency was 4 kHz and the data, filtered at a frequency of 2 kHz, were stored on hard disks for further analysis using the CLAMPFIT application of the pCLAMP software. The current (IKir2.1) was recorded by applying 250 ms pulses from -120 to +20 mV from a holding potential of -60 mV. The density of the same was obtained by normalising the amplitude of IKir2.1 at the end of the pulse by the capacitance of each cell (pA/pF). […] Like in example 2.1, each point represents the mean±SEM of "n" experiments obtained from at least 3 different CHO cell plates. One-way ANOVA followed by the Tukey test. * P<0.05 vs. cells transfected only with Kir2.1 channels.

[6] = tested on: human iPSC-derived cardiomyocytes; test: INa, IK1 and INaL by patch-clamp in cardiomyocytes infected with adeno-associated virus encoding the peptide; format: cell-based; conditions: hiPSC-CM
Excerpt: One-way ANOVA followed by the Tukey test.

[7] = tested on: human minimal promoter of the SCN5A gene; test: Luciferase assay in hEK-293 cells, minimal promoter of SCN5A; format: cell-based; conditions: hEK-293, co-transfected with cDNA SEQ ID NO: 5, 48 hours
Experimental: (§3) 48 hours after transfection, luciferase assays were performed using the LightSwitch Luciferase Assay reagent, also from Active Motif, and a Berthold luminometer. All assays were performed in triplicate and each point represents the mean of each technical triplicate.

[8] = tested on: human minimal promoter of the KCNJ2 gene; test: Luciferase assay in hEK-293 cells, minimal promoter of KCNJ2; format: cell-based; conditions: hEK-293, co-transfected with cDNA SEQ ID NO: 5, 48 hours
Experimental: as §3

[9] = infection 48 hours before recording, vs Ad-td-Tomato

“RFTRESLAAIE (listed as Homo sapiens) [SEQ ID NO: 3]” was tested, and the “density of INa” value [1] was “significantly increase”, the “density of IK1” value [2] was “significantly increase” and the capacitance of myocytes [3] was “significantly lower”. The IK1 ([4]; Sham animals) was “significantly increases”, the “density of IK1 compared with that recorded in Sham animals” value ([4]; TAC animals pretreated with DECA-11 vs. Sham animals) was “not different” and the IK1 ([4]; TAC animals) was “significantly increases”. For the same sequence, the INaL [5] was “does not increase”.
For RFTRESLAAIE [DECA-11, RFTRESLAAIE], the “density of IKir2.1” value (human Kir2.1 channels) was “significantly increase the density of IKir2.1”, the INaL ([6]; TTX (10 µM) sensitive sustained current as percentage of the current peak) was “does not increase INaL” and the “density of IK1” value [6, 9] was “significantly increase the density of INa and IK1”. For the same sequence, the “density of INa” value [6, 9] was “significantly increase the density of INa and IK1”, the “effect on the minimal promoter of the human SCN5A gene” value [7] was “no significant effect” and the “effect on the minimal promoter of the human KCNJ2 gene” value [8] was “protranscriptional effect”.
